These results are taken from patent US20250179047A1, “5-[7-(3,4-DIHYDRO-1H-ISOQUINOLINE-2-CARBONYL)-1,2,3,4 TETRAHYDROISOQUINOLIN-6-YL]-1H-PYRROLE-3-CARBOXAMIDE DERIVATIVES, PHARMACEUTICAL COMPOSITIONS CONTAINING THEM AND THEIR USES AS PRO-APOPTOTIC AGENTS” (LES LABORATOIRES SERVIER, priority 2022, published 2025).

The term IC50 denotes the concentration needed to halve the response being measured.

The target in one assay is BCL2 D103Y (Homo sapiens, UniProt P10415, D103Y). Kind of assay: TR-FRET competitive binding assay, BCL2 D103Y. Particulars: Ki determined from IC50, read-out: TR_FRET EKI_Bcl2 D103Y. In outline:
(§1)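 Competitive TR-FRET displacement of fluorescein-PUMA peptide (2 or 20 nM) from 0.5 nM terbium-labelled N-terminal Halo-fusion BCL2 (1-207, wild type or mutant) or BCLXL (2-196), expressed in E. coli. Buffer 50 mM Hepes pH 7.5, 150 mM NaCl, 5% DMSO; 2 h at 23°C. 520/495 nm ratio fitted over 11 points for IC50, converted to Ki.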

Another assay concerns the target BCL2 WT (Homo sapiens (Human), UniProt P10415). Nature of the assay: TR-FRET competitive binding assay, BCL2 WT. The conditions noted are these: Ki determined from IC50, read-out: TR_FRET EKI_Bcl2 WT. In a few lines:
as §1
Background: In TR-FRET formats the signal depends on donor and acceptor labels being close together.

The target in another assay is BCLXL WT (Homo sapiens (Human), UniProt Q07817). Kind of assay: TR-FRET competitive binding assay, BCLXL WT. The conditions noted are these: for Ki: BCLXL WT, Ki determined from IC50, read-out: TR_FRET EKI BclxL; for TR_FRET EKI BCLxL/WT selectivty ratio: ratio Ki BCLxL / Ki BCL2 WT. In a few lines: as §1
BCLXL WT, sequence (Q07817 other isoform, or with tags, fused parts or gaps): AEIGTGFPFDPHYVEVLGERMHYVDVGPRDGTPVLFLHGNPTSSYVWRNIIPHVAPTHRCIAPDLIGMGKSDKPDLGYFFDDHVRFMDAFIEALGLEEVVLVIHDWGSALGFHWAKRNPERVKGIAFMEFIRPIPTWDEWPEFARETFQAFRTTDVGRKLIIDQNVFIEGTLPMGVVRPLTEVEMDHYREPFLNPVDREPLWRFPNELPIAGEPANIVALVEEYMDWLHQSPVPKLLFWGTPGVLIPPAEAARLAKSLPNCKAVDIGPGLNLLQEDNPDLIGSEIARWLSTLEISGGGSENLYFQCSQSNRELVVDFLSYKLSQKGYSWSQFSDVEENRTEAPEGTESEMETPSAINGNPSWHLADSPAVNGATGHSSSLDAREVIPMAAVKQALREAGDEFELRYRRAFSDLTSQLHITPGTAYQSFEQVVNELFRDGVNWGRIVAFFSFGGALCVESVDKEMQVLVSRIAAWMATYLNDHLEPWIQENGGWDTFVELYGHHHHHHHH
In another assay the test system is KMS-12-PE Bcl-2 G101V. Nature of the assay: In vitro cytotoxicity CellTiter-Glo 48 h, KMS-12-PE Bcl-2 G101V. Particulars: for Ratio (G101V/WT): C50 KMS-12-PE Bcl-2 G101V over C50 KMS-12-PE Bcl-2 WT; for IC50: Homo sapiens, KMS-12-PE, 48 h, CellTiter-Glo, C50 = concentration needed to reach 50% of the cellular viability. The class given is cell-based. In outline:
(§2)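 Transduce KMS-12-PE with Bcl-2 WT or G101V lentivirus, then FACS-sort RFP-positive cells. Add compounds in an 11-point dilution series and incubate 48 h at 37 °C. Measure ATP-based luminescence with CellTiter-Glo and derive C50 (50% viability).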
In general terms: ATP-based viability assays read luminescence as a measure of living cells.

The target in the next assay is CYP3A4 (Homo sapiens (Human), UniProt P08684). Kind of assay: CYP3A4 inhibition determination in hepatic human microsomes. The format is in vitro ADME. The conditions noted are these: LC/MS-MS of specific metabolite. As for the experimental part:
The inhibitory potential was determined on CYP3 Å4 enzyme using hepatic human microsomes. A range of concentrations (adapted based on the solubility) of the tested compound were incubated in presence of a substrate having a specific metabolite of CYP3 Å4 enzyme.
Then, the formation of the metabolite was quantified using LC/MS-MS analysis and a curve corresponding to the concentration of the metabolite in function of the concentration of the test compound allowed to the calculation of the IC50 value.

The target of another assay is BCL2 D111A (Homo sapiens, UniProt P10415, D111A). Kind of assay: TR-FRET competitive binding assay, BCL2 D111A. The conditions noted are these: Ki determined from IC50, read-out: TR_FRET EKI_Bcl2 D111A. In a few lines:
as §1

The next assay concerns KMS-12-PE Bcl-2 WT. Nature of the assay: In vitro cytotoxicity CellTiter-Glo 48 h, KMS-12-PE Bcl-2 WT. The format is cell-based. The conditions noted are these: Homo sapiens, KMS-12-PE, C50 = concentration needed to reach 50% of the cellular viability. In a few lines:
as §2

Assay [1] deals with BCL2 G101V. Kind of assay: TR-FRET competitive binding assay, BCL2 G101V. Set-up: species or system human. The conditions noted are these: ratio Ki BCL2 G101V / Ki BCL2 WT. In outline: as §1
Assay [2] deals with BCL2 G101V (Homo sapiens, UniProt P10415, G101V). Nature of the assay: TR-FRET competitive binding assay, BCL2 G101V. The conditions noted are these: BCL2 G101V; Ki determined from IC50; read-out: TR_FRET EKI_Bcl2 G101V. In a few lines: as §1
Another assay addresses BCL2 F104I (Homo sapiens, UniProt P10415, F104I). Kind of assay: TR-FRET competitive binding assay, BCL2 F104I. The conditions noted are these: Ki determined from IC50, read-out: TR_FRET EKI_Bcl2 F104I. In outline:
as §1

CYP3A4, sequence (P08684 whole entry): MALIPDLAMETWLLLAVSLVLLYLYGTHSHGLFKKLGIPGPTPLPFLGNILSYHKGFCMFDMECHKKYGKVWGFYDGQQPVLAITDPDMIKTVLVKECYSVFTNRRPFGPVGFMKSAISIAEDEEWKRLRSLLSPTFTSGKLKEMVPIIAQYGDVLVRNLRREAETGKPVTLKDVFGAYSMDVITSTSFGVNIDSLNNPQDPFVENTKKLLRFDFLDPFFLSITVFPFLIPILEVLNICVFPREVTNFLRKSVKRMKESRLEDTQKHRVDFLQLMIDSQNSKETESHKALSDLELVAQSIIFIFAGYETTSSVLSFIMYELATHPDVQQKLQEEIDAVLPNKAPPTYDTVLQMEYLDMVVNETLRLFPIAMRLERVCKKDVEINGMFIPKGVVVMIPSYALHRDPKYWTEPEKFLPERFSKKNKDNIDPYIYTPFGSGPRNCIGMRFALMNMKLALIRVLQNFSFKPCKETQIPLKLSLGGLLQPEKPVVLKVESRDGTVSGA

Regarding `Cc1c(N(C(=O)c2cc(-c3cc4c(cc3C(=O)N3Cc5ccccc5C[C@H]3CN3CCCCC3)CN(C(=O)Cc3ccc(OCCN5CCOCC5)cc3)CC4)n(C)c2C)c2ccc(O)cc2)cc(C#N)n1C` [Example 67, N-(5-cyano-1,2-dimethylpyrrol-3-yl)-N-(4-hydroxyphenyl)-1,2-dimethyl-5-[2-(2-{4-[2-(morpholin-4-yl)ethoxy]phenyl}acetyl)-7-{[(3S)-3-(piperidin-1-ylmethyl)-3,4-dihydro-1H-isoquinolin-2-yl]carbonyl}-3,4-dihydro-1H-isoquinolin-6-yl]pyrrole-3-carboxamide], the Ki at BCL2 D103Y was 0.16 nM; at BCL2 WT, 0.04 nM; on BCLXL WT, 2.6 nM; on BCL2 D111A, 0.09 nM; at BCL2 G101V [2], 0.2 nM; at BCL2 F104I, 0.23 nM. Moreover, the “TR_FRET EKI BCLxL/WT selectivty ratio” value at BCLXL WT was found to be 68.4. In addition, the “Ratio (G101V/WT)” value in the assay with KMS-12-PE Bcl-2 G101V was found to be 5.2. The IC50 in the assay on KMS-12-PE Bcl-2 G101V was 0.0562 µM; on CYP3A4 it was more than 5000 nM; with KMS-12-PE Bcl-2 WT, 0.0113 µM. Also, the “TR_FRET EKI G101V/WT selectivty ratio” value in the assay on BCL2 G101V [1] is recorded as 6.3.
On to `Cc1c(N(C(=O)c2cc(-c3cc4c(cc3C(=O)N3Cc5ccccc5C[C@H]3CN(C)C(C)C)CN(C(=O)Cc3ccc(OCCN5CCOCC5)cc3F)CC4)n(C)c2C)c2ccc(O)cc2)cc(C#N)n1C` [Example 91, N-(5-cyano-1,2-dimethyl-1H-pyrrol-3-yl)-5-[2-(2-{2-fluoro-4-[2-(morpholin-4-yl)ethoxy]phenyl}acetyl)-7-[(3S)-3-{[methyl(propan-2-yl)amino]methyl}-1,2,3,4-tetrahydroisoquinoline-2-carbonyl]-1,2,3,4-tetrahydroisoquinolin-6-yl]-N-(4-hydroxyphenyl)-1,2-dimethyl-1H-pyrrole-3-carboxamide], for which the Ki at BCL2 D103Y was found to be 0.17 nM; on BCL2 WT it was 0.04 nM; on BCLXL WT, 2.4 nM; on BCL2 D111A, 0.08 nM; at BCL2 G101V [2] it was 0.3 nM; on BCL2 F104I it was 0.25 nM. Also, the “TR_FRET EKI BCLxL/WT selectivty ratio” value on BCLXL WT is given as 60.0. In addition, the “Ratio (G101V/WT)” value with KMS-12-PE Bcl-2 G101V was 5.96. The results for the IC50 in the assay on KMS-12-PE Bcl-2 G101V, on CYP3A4 and in the assay on KMS-12-PE Bcl-2 WT were 0.0498 µM, 18000 nM and 0.0084 µM, respectively. Besides, in the assay on BCL2 G101V [1], the “TR_FRET EKI G101V/WT selectivty ratio” value is on record as 6.8.
As to `Cc1c(C(=O)N(c2ccc(O)cc2)c2cc(C#N)n(C(F)F)c2C)cc(-c2cc3c(cc2C(=O)N2Cc4ccccc4C[C@H]2CN2CCCC2)CN(C(=O)Cc2ccc(OCCN4CCOCC4)cc2F)CC3)n1C` [Example 110], the Ki at BCL2 D103Y was found to be 0.11 nM; on BCL2 WT, 0.04 nM; at BCLXL WT, 4.1 nM; at BCL2 D111A it was 0.09 nM; on BCL2 G101V [2], 0.3 nM; at BCL2 F104I it was 0.15 nM. Further, the “TR_FRET EKI BCLxL/WT selectivty ratio” value on BCLXL WT was 102.5. Moreover, the “Ratio (G101V/WT)” value in the assay with KMS-12-PE Bcl-2 G101V amounted to 5.02. Besides, the IC50 is 0.0512 µM in the assay on KMS-12-PE Bcl-2 G101V, more than 5000 nM at CYP3A4 and 0.0102 µM in the assay on KMS-12-PE Bcl-2 WT. Further, the “TR_FRET EKI G101V/WT selectivty ratio” value in the assay with BCL2 G101V [1] worked out at 6.3.
